Source: US8172395B2, “Medical devices having antimicrobial coatings thereon” (priority 2002, dated 2012)
Where no end group is shown, it is not given here.

Tests used:
[1] = test system: L929 mammalian fibroblasts; experiment: Cytotoxicity, USP Elution Test (MEM elution); conditions: 5, 0.5 and 0.05 μg/ml; 25% test solution in medium; L929 cells examined after 48 hours
Method: Cytotoxicity of Cecropin A melittin hybrid is evaluated according to the USP Elution Test (“Biological Reactivity Tests, In-Vitro: Elution Test”, The United States Pharmacopeial Convention, Inc.). Cell cultures, L929 mammalian fibroblasts (ATCC cell line CCL1, NCTC clone 929), are grown to a near confluent monolayer in 6 well plates (individual wells are 35 mm diameter). […] The serum-supplemented cell culture medium is prepared by mixing 1000 mL Eagle's sterile minimum essential medium (MEM), 100 mL serum, 10 ml L-glutamine solution and antibiotic-antimycotic solution.

[2] = test system: P. aeruginosa GSU #3 (corneal isolate); type: cell-based, Pseudomnas aeruginosa; conditions: 37° C., 24 h; tested 1-20 μg/ml
Method: (§1) Two (2) peptides, Cecropin P1 and Cecropin A-melittin hybrid, from American Peptides Company, Inc. are tested against strains of Pseudomnas aeruginosa GSU # 3 (corneal isolate) and # 9027 (a Gram negative organism), Staphylococcus aureus #6538, and Staphylococcus epidermidis # 17917. The first two strains are Gram negative organisms. The last two strains are Gram positive organisms. These organisms are chosen because they are the most common etiological agents causing infection in the eye. The peptides are kept at −70° C. until they are ready to be used. The peptide concentrations tested are 20, 16, 8, 4, 2 and 1 μg/ml in Delbeco's Phosphate Buffered Saline (PBS).
(§2) The bacteria are harvested, washed twice and adjusted to an O.D. of 10^8 cells/ml. Cells then are serially diluted and adjusted to about 5×10^5 cfu/ml. The cells are inoculated into microtiter plates containing serially decreasing peptide concentrations. The inoculum for the bacterial strains are suspended in Mueller Hinton broth, and the final volume in each well is 200 μl. The microtiter plates are incubated at 37° C. for 24 h. The growth is checked as optical density spectrophotometrically in a microtiter plate reader. The O.D. is compared to the blank and to the growth well to determine the MIC. […]

[3] = test system: P. aeruginosa (PA) (ATCC# 19660); experiment: Mouse organ culture model: adherence of P. aeruginosa to scarified mouse cornea; conditions: PA pre-incubated 1 h, PBS control 42.4
Method: Using the mouse organ culture model, this assay assesses the ability of a compound to inhibit the binding of P. aeruginosa to scarified eyes. Cecropin A melittin hybrid has been tested at three concentrations: 10, 2, and 0.5 μg/ml.
The solutions are tested for their ability to prevent adherence of P. aeruginosa (PA) (ATCC# 19660) to scarified mouse cornea. For these studies 1×10^7 cfu of PA is combined with each of the solutions at each concentration and incubated for 1 h at room temperature. In addition, 1×10^7 cfu of PA are incubated in PBS for 1 h at room temperature as a control. Following this incubation period, the PA are washed twice to remove the peptide solutions. For each washing step, the cultures are centrifuged at 6,000 rpm for 10 min and pellets are resuspended in 1.0 ml of PBS.
Mouse corneas are scarified under a stereoscopic microscope at 40× magnification. The corneal surface of the eyes is incised with three parallel one-mm wounds. The eyes are then enucleated and placed into sterile culture wells containing 2 ml of MEM.
A 5.0 μl aliquot of each bacterial suspension is delivered onto the surface of the cornea. Eyes are routinely incubated in vitro for 1 h at 37° C. at 95% O2 (5% CO2) after bacterial application. Scanning electron microscopy (SEM) is used to quantitate adherent bacteria.
To determine the efficacy of the peptide, the numbers of bacteria at each concentration is compared from 2 separate identical experiments to the PBS control, p≦0.05 is considered significant. There is a slight reduction at 0.5 μg, but significant difference in adherence at 2 and 10 μg from the control. The values for the bacteria adhered at 0.5 μg is 42.4 and 32.6 for the PBS control and the peptide solution respectively. At 2 μg, it is 42.4 and 15.8 for the PBS control and the peptide solution respectively. At 10 μg, it is 42.4 and 5.8 for the PBS control and the peptide solution respectively.

S. aureus #6538 = experiment: MIC of peptides in Mueller Hinton broth, microtiter plates; type: cell-based, Staphylococcus aureus; conditions: 37° C., 24 h; tested 1-20 μg/ml
Method: as §1, §2

S. epidermidis #17917 = experiment: as above; type: cell-based, Staphylococcus epidermidis; conditions: 37° C., 24 h; tested 1-20 μg/ml
Method: as §1, §2

| Molecule | Cytotoxicity (MEM elution test) [1] | Minimal inhibition concentration, P. aeruginosa GSU #3 [2] [μg/ml^1 μg/mL] | bacteria adhered (SEM count) ([3]; 0.5 μg/ml peptide) | bacteria adhered (SEM count) ([3]; 2 μg/ml peptide) | bacteria adhered (SEM count) ([3]; 10 μg/ml peptide) | Minimal inhibition concentration, S. aureus #6538 (S. aureus #6538) [μg/ml^1 μg/mL] | Minimal inhibition concentration, S. epidermidis #17917 (S. epidermidis #17917) [μg/ml^1 μg/mL] |
| --- | --- | --- | --- | --- | --- | --- | --- |
| CC[C@H](C)[C@H](N)C(=O)N[C@@H](CC(C)C)C(=O)N1CCC[C@H]1C(=O)N[C@@H](Cc1c[nH]c2ccccc12)C(=O)N[C@@H](CCCCN)C(=O)N[C@@H](Cc1c[nH]c2ccccc12)C(=O)N1CCC[C@H]1C(=O)N[C@@H](Cc1c[nH]c2ccccc12)C(=O)N[C@@H](Cc1c[nH]c2ccccc12)C(=O)N1CCC[C@H]1C(=O)N[C@@H](Cc1c[nH]c2ccccc12)C(=O)N[C@@H](CCCN=C(N)N)C(=O)N[C@@H](CCCN=C(N)N)C(N)=O [Indolicidin] | non-cytotoxic | – | – | – | – | – | – |
| KWKLFKKIGAVLKVL-NH2 (C-terminus assumed) [Cecropin A Melittin Hybrid] | non-cytotoxic | >20 | 32.6 | 15.8 | 5.8 | – | – |
| SWLSKTAKKLENSAKKRISEGIAIAIQGGPR [Cecropin P1] | – | – | – | – | – | >20 | >20 |
